Legend:
[1] = test system: human breast cancer cell lines BT-474; assay: tumor xenograft model in vivo with radiation irradiation; design: species or system BALB/c athymic nude mouse; conditions: simeprevir 10 mg/Kg to peritoneal cavity three times a week for two weeks + radiation 9 Gy (3 Gy three times a week); compared with other groups; FIG. 9
Description: In order to form a tumor xenograft model in vivo, 5×10^6 human breast cancer cell lines BT-474 were injected to a hind leg of a BALB/c athymic nude mouse. After 3 weeks, it was verified that the tumor was uniformly grown, and the mouse was randomly assigned to four groups of a control group, a simeprevir group, a radiation irradiation group, and a simeprevir+radiation irradiation group. The simeprevir was administrated to peritoneal cavity with a concentration of 10 mg/Kg three times a week for two weeks, and the radiation was irradiated with 9 Gy three times a week by 3 Gy by electron beam of 6 MeV while covering 1 cm bolus. After the entire treatment was finished, the size of the tumor was measured at an interval of about 1 week, and the result was illustrated in FIG. 9.

[2] = test system: phosphorylation of PKC and AKT; assay: immune blotting of phosphorylation after simeprevir treatment, U251; format: cell-based; conditions: 24-72 hours of drug treatment, FIG. 5 right panel
Description: Simeprevir used as a hepatitis anti-C virus drug was treated and phosphorylation was verified through immune blotting after 24-72 hours of drug treatment. The result was illustrated in FIG. 5 (right panel).

BT-474 cell line = assay: colony formation assay after antiviral drug treatment and irradiation, BT-474; format: cell-based, human; conditions: drug concentrations determined as 100 nM, 200 nM and 30 μM, FIGS. 5 and 6
Description: (§1) First, after 48 hours of siRNA transduction of Example 2, the cells were collected and 500 with 0 Gy, 1,000 with 2 Gy, 2,000 with 4 Gy, and 4,000 with 6 Gy cells were cultured on a plate according to a radiation dose. After it was checked that the cells were stably attached to a culture dish, radiation was treated with a radiation dose rate of 2.46 Gy per minute by 4 MV X-ray by using a linear accelerator, and the cells were cultured for about 14 days to 23 days until cell colonies were checked with the naked eye. The formed colonies were fixed with 100% methanol and then dyed with 0.5% crystal violet, and surviving fraction was calculated by counting the number of colonies including at least 50 cells. In the surviving fraction, an average of the number of cell colonies in three wells for each radiation dose was shown according to a linear-quadratic model using Kaleidagraph version 3.51 (Synergy Software, Reading, Pa.), and the result was illustrated in FIG. 2.
(§2) As the hepatitis anti-C virus drug, simeprevir (Olysio) (Janssen Pharmaceutica), sofosbuvir (sovaldi) (Gilead), and daclatasvir (Daklinza) (Bristol-Myers Squibb) were used. […]
(§3) After the determined amount of drug was treated in the brain tumor and breast cancer cell lines, the colony formation assay was performed by the same method as Experimental Example 1, and the result was illustrated in FIGS. 5 to 7.

U251 cell line = assay: colony formation assay after antiviral drug treatment and irradiation, U251; format: cell-based; conditions: drug concentrations determined as 100 nM, 200 nM and 30 μM, FIGS. 5 to 7
Description: as §1, §2, §3

COc1ccc2c(O[C@@H]3C[C@H]4C(=O)N[C@]5(C(=O)NS(=O)(=O)C6CC6)C[C@H]5/C=C\CCCCN(C)C(=O)[C@@H]4C3)cc(-c3nc(C(C)C)cs3)nc2c1C [simeprevir]
growth of the tumor [1]: significantly inhibited | phosphorylation of AKT [2]: reduction | phosphorylation of PKC [2]: reduction | sensitivity to radiation (colony formation assay) (BT-474 cell line): enhanced | sensitivity to radiation (colony formation assay) (U251 cell line): enhanced

CC(C)OC(=O)[C@H](C)N[P@](=O)(OC[C@H]1O[C@@H](n2ccc(=O)[nH]c2=O)[C@](C)(F)[C@@H]1O)Oc1ccccc1 [sofosbuvir]
sensitivity to radiation (colony formation assay) (BT-474 cell line): enhanced | sensitivity to radiation (colony formation assay) (U251 cell line): enhanced
